“Also recorded” adds a separate entry of the source.
Legend:
RyR2 [1] = target: T1, RyR2 (Homo sapiens, UniProt Q92736); test: [3H]ryanodine binding to immunoprecipitated RyR2 (surrogate of channel open probability / leak); assay type: biochemical
T1 construct: RyR2 was immunoprecipitated from 1.5 mg of tissue lysate using an anti-RyR2 specific antibody; from tissue; host or cells: brain tissue (cortex, cerebellum) of COVID-19 patients and controls
Protocol: RyR2 was immunoprecipitated from 1.5 mg of tissue lysate using an anti-RyR2 specific antibody (25 μg) in 1.0 ml of a modified RIPA buffer overnight at 4° C. The immune complexes were incubated with protein A-Sepharose beads (Sigma) at 4° C. for 1 h, and the beads were washed three times with RIPA buffer, followed by 2 washes with ryanodine binding buffer (10 mM Tris-HCl, pH 6.8, 1 M NaCl, 1% CHAPS, 5 mg/ml phosphatidylcholine, and protease inhibitors). Immunoprecipitates were incubated in 0.2 ml of binding buffer containing 20 nM [^3H] ryanodine and either of 150 nM and 20 μm free Ca^2+ for 1 h at 37° C. Samples were diluted with 1 ml of ice-cold washing buffer (25 mm Hepes, pH 7.1, 0.25 m KCl) and filtered through Whatman GF/B membrane filters pre-soaked with 1% polyethyleneimine in washing buffer. Filters were washed three times with 5 ml of washing buffer. The radioactivity remaining on the filters is determined by liquid scintillation counting to obtain bound [^3H] ryanodine. Nonspecific binding was determined in the presence of 1000-fold excess of non-labeled ryanodine.

RyR2 [2] = target: T1, RyR2; assay type: biochemical; conditions: COVID-19 patient brain tissue lysates (Ctx, CB) treated ex vivo with 10 μM compound at 4° C.; FIGS. 3A and B; p<0.05 vs untreated COVID-19

T1 sequence (Q92736 whole entry): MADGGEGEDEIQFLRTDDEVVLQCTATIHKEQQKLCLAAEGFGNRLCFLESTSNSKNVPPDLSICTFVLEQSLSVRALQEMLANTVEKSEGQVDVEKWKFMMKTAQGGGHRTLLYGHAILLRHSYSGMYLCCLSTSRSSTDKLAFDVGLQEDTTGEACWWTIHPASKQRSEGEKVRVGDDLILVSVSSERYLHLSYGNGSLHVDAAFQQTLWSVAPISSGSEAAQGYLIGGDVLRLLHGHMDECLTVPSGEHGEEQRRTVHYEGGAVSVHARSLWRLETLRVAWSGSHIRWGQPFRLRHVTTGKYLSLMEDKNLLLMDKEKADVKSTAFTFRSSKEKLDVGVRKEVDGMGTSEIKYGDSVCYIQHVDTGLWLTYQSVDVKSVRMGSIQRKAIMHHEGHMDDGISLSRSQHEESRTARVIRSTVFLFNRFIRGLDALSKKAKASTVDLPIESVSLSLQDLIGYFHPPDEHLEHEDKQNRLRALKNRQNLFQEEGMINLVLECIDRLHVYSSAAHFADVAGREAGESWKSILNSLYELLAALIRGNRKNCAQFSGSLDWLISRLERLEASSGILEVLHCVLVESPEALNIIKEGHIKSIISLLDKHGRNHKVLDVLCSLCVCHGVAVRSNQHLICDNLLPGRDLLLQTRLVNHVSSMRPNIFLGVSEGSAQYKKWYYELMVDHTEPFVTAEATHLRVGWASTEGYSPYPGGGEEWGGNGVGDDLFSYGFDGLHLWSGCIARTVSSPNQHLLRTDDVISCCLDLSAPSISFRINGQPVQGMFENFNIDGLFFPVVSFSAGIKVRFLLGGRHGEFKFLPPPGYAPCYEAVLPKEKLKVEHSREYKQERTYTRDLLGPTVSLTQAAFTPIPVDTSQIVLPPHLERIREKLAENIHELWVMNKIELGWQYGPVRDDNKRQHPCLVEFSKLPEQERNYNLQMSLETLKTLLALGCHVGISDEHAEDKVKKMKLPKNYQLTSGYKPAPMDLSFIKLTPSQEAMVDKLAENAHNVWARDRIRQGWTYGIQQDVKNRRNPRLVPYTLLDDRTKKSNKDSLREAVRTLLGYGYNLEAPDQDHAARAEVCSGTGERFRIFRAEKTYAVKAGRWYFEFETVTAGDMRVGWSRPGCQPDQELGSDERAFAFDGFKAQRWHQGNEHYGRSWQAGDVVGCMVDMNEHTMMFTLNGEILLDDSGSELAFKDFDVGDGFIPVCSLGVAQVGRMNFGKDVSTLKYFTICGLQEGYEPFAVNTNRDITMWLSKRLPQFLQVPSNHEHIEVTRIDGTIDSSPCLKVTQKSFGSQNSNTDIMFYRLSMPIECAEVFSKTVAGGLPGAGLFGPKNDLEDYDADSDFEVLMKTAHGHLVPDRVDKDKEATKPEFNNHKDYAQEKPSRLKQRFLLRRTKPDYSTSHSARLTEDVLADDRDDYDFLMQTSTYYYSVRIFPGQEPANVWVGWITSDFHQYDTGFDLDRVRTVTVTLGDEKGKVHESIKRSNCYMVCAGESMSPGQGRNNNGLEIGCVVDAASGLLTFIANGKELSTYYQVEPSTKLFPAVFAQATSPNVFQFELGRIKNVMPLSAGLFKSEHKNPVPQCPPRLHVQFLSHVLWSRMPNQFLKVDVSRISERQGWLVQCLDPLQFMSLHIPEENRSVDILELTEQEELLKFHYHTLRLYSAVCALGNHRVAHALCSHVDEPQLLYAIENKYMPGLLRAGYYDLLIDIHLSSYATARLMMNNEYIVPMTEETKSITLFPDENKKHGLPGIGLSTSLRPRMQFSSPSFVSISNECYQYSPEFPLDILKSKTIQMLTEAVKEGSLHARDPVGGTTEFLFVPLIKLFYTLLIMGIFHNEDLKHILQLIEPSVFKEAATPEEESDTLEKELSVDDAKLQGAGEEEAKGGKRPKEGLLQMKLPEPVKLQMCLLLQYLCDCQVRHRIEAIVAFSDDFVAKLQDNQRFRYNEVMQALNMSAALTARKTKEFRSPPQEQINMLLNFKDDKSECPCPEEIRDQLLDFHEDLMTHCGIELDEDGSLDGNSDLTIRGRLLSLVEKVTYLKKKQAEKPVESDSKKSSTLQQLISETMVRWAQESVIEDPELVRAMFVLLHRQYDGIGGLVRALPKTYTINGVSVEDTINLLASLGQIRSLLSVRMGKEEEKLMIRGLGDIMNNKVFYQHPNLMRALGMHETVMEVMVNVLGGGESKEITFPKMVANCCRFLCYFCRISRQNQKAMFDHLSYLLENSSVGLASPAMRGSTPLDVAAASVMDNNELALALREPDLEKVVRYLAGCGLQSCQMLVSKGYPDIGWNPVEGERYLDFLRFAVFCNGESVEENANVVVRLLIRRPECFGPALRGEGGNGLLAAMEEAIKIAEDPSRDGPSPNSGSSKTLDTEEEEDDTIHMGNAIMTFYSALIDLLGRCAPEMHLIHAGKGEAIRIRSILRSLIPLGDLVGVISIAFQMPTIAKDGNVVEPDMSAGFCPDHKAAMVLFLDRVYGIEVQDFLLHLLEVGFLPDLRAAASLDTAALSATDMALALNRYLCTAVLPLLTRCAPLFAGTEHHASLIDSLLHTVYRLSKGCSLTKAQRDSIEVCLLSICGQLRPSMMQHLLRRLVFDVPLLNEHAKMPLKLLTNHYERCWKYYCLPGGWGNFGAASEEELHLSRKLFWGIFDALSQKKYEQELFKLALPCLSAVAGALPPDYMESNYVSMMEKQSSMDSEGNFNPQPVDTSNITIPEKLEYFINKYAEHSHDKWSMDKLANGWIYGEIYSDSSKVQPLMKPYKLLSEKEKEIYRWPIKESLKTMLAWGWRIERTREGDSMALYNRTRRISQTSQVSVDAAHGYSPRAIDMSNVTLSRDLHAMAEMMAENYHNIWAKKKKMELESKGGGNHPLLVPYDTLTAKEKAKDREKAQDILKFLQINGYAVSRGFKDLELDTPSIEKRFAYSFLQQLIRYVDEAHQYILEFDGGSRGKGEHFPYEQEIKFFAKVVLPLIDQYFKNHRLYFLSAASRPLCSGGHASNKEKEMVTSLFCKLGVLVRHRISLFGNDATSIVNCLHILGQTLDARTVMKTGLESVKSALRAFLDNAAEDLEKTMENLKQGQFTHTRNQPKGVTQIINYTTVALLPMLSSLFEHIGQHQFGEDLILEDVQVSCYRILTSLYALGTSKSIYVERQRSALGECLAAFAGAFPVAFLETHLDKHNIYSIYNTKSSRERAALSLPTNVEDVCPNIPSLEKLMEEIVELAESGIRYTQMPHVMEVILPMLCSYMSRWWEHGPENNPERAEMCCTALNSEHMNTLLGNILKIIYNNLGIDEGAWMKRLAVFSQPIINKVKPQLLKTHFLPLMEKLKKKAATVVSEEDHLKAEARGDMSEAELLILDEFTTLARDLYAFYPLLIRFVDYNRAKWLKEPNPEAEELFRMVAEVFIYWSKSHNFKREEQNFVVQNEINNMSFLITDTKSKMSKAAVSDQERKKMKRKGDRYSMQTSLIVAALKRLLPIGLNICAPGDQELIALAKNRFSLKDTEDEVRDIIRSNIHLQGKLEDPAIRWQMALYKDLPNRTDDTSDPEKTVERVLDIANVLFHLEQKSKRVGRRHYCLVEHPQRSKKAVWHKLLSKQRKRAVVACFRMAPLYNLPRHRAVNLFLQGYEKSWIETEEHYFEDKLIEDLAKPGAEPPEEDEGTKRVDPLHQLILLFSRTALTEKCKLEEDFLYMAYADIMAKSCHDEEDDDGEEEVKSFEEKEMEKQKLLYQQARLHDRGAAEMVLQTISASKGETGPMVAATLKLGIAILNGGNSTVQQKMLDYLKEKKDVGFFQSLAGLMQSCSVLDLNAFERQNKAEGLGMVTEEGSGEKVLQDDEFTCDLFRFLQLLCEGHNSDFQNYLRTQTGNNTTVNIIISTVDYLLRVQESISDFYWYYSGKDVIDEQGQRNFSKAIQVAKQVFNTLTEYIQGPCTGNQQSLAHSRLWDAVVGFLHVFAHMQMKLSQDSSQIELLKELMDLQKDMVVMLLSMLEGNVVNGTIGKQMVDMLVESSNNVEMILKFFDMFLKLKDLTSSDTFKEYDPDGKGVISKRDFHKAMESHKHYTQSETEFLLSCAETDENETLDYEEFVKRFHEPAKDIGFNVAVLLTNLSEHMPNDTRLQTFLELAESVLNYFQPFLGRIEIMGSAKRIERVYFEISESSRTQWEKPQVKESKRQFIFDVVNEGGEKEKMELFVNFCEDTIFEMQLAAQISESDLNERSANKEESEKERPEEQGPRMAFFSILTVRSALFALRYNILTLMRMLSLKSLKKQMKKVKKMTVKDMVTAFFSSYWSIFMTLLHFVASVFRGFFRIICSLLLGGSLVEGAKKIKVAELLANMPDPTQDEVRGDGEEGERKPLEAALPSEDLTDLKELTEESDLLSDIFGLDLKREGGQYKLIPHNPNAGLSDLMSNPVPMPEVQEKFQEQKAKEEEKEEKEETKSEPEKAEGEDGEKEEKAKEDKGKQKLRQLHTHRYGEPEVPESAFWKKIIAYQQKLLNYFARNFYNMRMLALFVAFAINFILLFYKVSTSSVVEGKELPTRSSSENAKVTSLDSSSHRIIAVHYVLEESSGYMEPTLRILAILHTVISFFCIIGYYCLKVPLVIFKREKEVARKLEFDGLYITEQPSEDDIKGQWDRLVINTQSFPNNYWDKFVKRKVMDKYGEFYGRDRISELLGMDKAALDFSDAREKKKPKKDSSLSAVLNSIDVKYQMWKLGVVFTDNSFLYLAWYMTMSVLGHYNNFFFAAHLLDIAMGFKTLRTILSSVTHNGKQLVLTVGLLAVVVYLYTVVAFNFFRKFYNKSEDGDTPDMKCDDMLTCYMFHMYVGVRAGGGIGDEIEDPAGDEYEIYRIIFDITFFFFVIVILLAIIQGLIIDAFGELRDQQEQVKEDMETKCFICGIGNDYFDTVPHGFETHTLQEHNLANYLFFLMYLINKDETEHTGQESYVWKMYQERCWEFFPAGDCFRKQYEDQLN
T1 sequence (P68106 whole entry partner): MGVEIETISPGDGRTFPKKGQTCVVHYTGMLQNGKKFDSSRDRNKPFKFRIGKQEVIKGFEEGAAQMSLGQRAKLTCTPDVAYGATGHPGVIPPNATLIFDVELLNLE

For `COc1ccc2c(c1)CN(Cc1ccc(C(=O)O)cc1)CCS2` [Compound 1], the “abnormal RyR2 activity ([3H]ryanodine binding) at resting Ca2+ concentration” value (RyR2 [1]; RyR2 immunoprecipitated from COVID-19 brain lysates, 150 nM free Ca2+, as percent of maximum binding (20 μM Ca2+), FIG. 3C, p<0.05 vs untreated COVID-19) was “decreased”, the RyR2 channel leak (RyR2 [1]; ex vivo treatment of COVID-19 patient brain samples) was “corrected; also recorded: fixed the channel leak” and the “calstabin2 binding to RyR2” value (RyR2 [2]) was “increased”.

Reference: US20230302013A1, “METHOD OF TREATING VIRAL-INDUCED COGNITIVE D[…] TARGETING LEAKY RyR2 CHANNELS” (The Trustees of Columbia University in the City of New York, priority 2022, published 2023)
